These results are taken from article PMC6582342 (Nucleic Acids Research, 2019).

The experiment addresses T1, TcEIF4E5 (Trypanosoma cruzi, UniProt A0A2V2VRR6).
T1 sequence (A0A2V2VRR6 1-200): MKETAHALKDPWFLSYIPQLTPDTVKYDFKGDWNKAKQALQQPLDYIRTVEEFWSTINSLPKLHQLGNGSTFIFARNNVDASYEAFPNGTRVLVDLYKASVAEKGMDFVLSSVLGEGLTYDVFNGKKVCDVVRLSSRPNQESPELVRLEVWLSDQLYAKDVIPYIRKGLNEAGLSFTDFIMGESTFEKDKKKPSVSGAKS
As to the kind of experiment: X-ray crystal structure. The format is binding.

The molecule `C[n+]1cn([C@@H]2O[C@H](COP(=O)(O)OP(=O)(O)OP(=O)(O)O)[C@@H](O)[C@H]2O)c2nc(N)[nH]c(=O)c21` [m7GTP] came in with a Kd of 21 ± 7 µM.
